4 molecules from patent US9522914B2, “Azole derivative” (TAISHO PHARMACEUTICAL CO., LTD, priority 2011, dated 2016) can be followed below.

As a reminder, the IC50 is the concentration that inhibits the measured activity by half. Higher therefore signals weaker potency in that assay.

Experiment [1] addresses T1, Human V1b receptor (Homo sapiens (Human), UniProt P47901). As to the kind of experiment: Measurement of V1b Receptor Antagonistic Activity (AVP-induced Fluo-4 fluorescence in CHO cells, FDSS). It counts as cell-based. Conditions: inhibition of the response to AVP 2.5 nmol/L, CHO cells stably expressing human V1b receptor. The method, then:
Measurement of V1b Receptor Antagonistic Activity
CHO cells (ATCC) so modified as to express human V1b receptor in a stable manner were cultured in Ham's F-12 medium (containing 10% FBS and 0.5 mg/mL Geneticin). On the day before the test, seeding was conducted at a density of 20,000 cells/well in a 96-well poly-D-lysine coated black plate. On the day of the test, the culture medium was removed, and a loading solution (1×HBSS, 10 mmol/L HEPES, 0.1% bovine serum albumin, 1.25 mmol/L Probenecid, 0.02% Pluronic F-127, 1.5 μmol/L Fluo-4-AM, pH 7.4) was added to each well, followed by incubation in a CO2 incubator for an hour. After the incubation, the loading solution was removed. A test solution (1×HBSS, 10 mmol/L HEPES, 0.1% bovine serum albumin, 1.25 mmol/L Probenecid, pH 7.4) containing any one of test compounds was added to wells, followed by incubation in a CO2 incubator for 30 minutes. The test compound was serially diluted with DMSO so that it would have final concentrations of 0.1 nmol/L to […] at the time of assaying. After the incubation, fluorescence intensity levels were measured and AVP added by means of FDSS (Hamamatsu Photonics K.K.); AVP was added to give a final concentration of 2.5 nmol/L at the time of assaying. […] The fluorescence level in a well to which neither test compound nor AVP was added was defined as 0%, and the fluorescence level in a well to which only AVP was added and no test compound was added was defined as 100%. A dose-response curve was plotted from fluorescence levels after the addition of AVP in the presence of a test compound at various concentrations, and the 50% inhibitory concentration (IC50 value) of the compound was calculated.

For experiment [2], the target named is T1, Human V1b receptor. As to the kind of experiment: Binding Test for V1b Receptor ([3H]AVP, crude membrane preparation of 293FT cells). To be noted: inhibition of [3H]AVP binding (0.4 to 1 nmol/L), room temperature, 60 minutes. Put shortly: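 Crude membranes from 293FT cells transiently expressing human V1b, incubated with [3H]AVP (0.4 to 1 nmol/L) and compound (0.01 nmol/L–1 μmol/L final) in Tris pH 7.4 with MgCl2 and 0.1% BSA, 60 min at room temperature. Bound label collected by filtration. Nonspecific binding defined with unlabeled AVP; IC50 from dose-response curve.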

T1 sequence (P47901 whole entry): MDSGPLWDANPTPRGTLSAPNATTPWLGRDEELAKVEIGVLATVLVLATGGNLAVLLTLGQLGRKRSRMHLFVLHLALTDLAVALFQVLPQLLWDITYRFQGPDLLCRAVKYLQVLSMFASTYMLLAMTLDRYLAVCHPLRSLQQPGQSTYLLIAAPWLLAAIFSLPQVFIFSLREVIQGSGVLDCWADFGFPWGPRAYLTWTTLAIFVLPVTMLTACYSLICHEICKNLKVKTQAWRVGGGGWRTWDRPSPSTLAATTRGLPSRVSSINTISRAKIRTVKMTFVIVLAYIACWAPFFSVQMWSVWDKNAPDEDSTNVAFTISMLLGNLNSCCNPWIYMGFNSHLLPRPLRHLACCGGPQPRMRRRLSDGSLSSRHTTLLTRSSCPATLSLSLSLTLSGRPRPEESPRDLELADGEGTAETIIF

Consider `CC(C)NC(=O)Cc1nn(-c2ccc(CCN3CCOCC3)cc2)c(=O)n1-c1cccc(Cl)c1` [Example D-01, 2-[4-(3-chlorophenyl)-1-{4-[2-(morpholin-4-yl)ethyl]phenyl}-5-oxo-4,5-dihydro-1H-1,2,4-triazol-3-yl]-N-(propan-2-yl)acetamide], for which the IC50 worked out at 21 nM at Human V1b receptor [1] and 15 nM on Human V1b receptor [2].

With `CC(C)(C)NC(=O)Cc1nn(-c2ccc(CCN3CCOCC3)cc2)c(=O)n1-c1cccc(Cl)c1` [Example D-13, N-tert-butyl-2-[4-(3-chlorophenyl)-1-{4-[2-(morpholin-4-yl)ethyl]phenyl}-5-oxo-4,5-dihydro-1H-1,2,4-triazol-3-yl]acetamide], the IC50 against Human V1b receptor [1] came out at 13 nM; on Human V1b receptor [2], 3.5 nM.

In the case of `CC(C)(C)NC(=O)Cc1nn(-c2ccc(CCN3C4CCC3COC4)cc2)c(=O)n1-c1cccc(Cl)c1` [Example D-14, N-tert-butyl-2-[4-(3-chlorophenyl)-1-{4-[2-(3-oxa-8-azabicyclo[3.2.1]oct-8-yl)ethyl]phenyl}-5-oxo-4,5-dihydro-1H-1,2,4-triazol-3-yl]acetamide], the figures for the IC50 at Human V1b receptor [1] and on Human V1b receptor [2] were 12 nM and 4.7 nM, respectively.

With `CC(C)NC(=O)Cc1nn(-c2ccc(CC(C)N3C4CCC3COC4)cc2)c(=O)n1-c1cccc(Cl)c1` [Example D-18, 2-[4-(3-chlorophenyl)-1-{4-[2-(3-oxa-8-azabicyclo[3.2.1]oct-8-yl)propyl]phenyl}-5-oxo-4,5-dihydro-1H-1,2,4-triazol-3-yl]-N-(propan-2-yl)acetamide], the IC50 was 0.65 nM at Human V1b receptor [1] and 1.5 nM at Human V1b receptor [2].
